In patent publication US11959079B2, “Methods for treating apolipoprotein E4-associated disorders” (priority 2009, dated 2024):
“Also recorded” adds a separate entry of the source.

Key:
Type in all cases: in vivo
female apoE4-KI mice [1] = experiment: Morris water maze, spatial learning and memory, apoE4-KI mice
Protocol: (§1) Human apoE3-KI and apoE4-KI mice (Sullivan et al., 2004) were from Taconic. Tau−/− mice (Dawson et al., 2001) were backcrossed onto the mE−/− background, and mE−/−Tau−/− mice were crossed with apoE4(Δ272-299)mE−/− Tau+/+ mice. Studies were conducted on female mice at 1, 3, 6, 12, 16, or 21 months of age. All mice were on a C57BL/6 genetic background. Some apoE4-KI and apoE4(Δ272-299)mE−/−Tau+/+ mice received daily intraperitoneal injections of pentobarbital (20 mg/kg) or saline in their home cages for 21 days before the first day of Morris Water Maze (MWM) training and 1 h after daily training. Some apoE4(Δ272-299)mE−/−Tau−/− mice were given daily injections of picrotoxin (1 mg/kg) or saline intraperitoneally in their home cages for 3 days before MWM training and 30 min before daily training. Brain tissues were collected after a 1-min transcardial perfusion with 0.9% NaCl. One hemibrain from each mouse was fixed in 4% paraformaldehyde, sectioned (30 μm) with a microtome, and immunostained as described below. All experiments were performed in accordance with NIH and institutional guidelines.
(§2) The water maze pool (diameter, 122 cm) contained opaque water (22-23° C.) with a platform 10 cm in diameter. The platform was submerged 1.5 cm during hidden platform sessions (Harris et al., 2003; Raber et al., 1998; Roberson et al., 2007) and marked with black-and-white-striped mast (15 cm high) during cued training sessions. Mice were trained to locate the hidden platform (hidden days 1-5) and the cued platform (visible days 1-3) in two daily sessions (3.5 h apart), each consisting of two 60-s trials (hidden and cued training) with a 15-min intertrial interval. The platform location remained constant in the hidden platform sessions but was changed for each cued platform session. Entry points were changed semirandomly between trials. Twenty-four, 72, and 96 hours after the last hidden platform training, a 60-s probe trial (platform removed) was performed. Entry points for the probe trial were in the west quadrant, and the target quadrant was in the southeast quadrant. Performance was monitored with an EthoVision video-tracking system (Noldus Information Technology).

female apoE4-KI mice [2] = experiment: Quantification of GAD67-positive hilar GABAergic interneurons, apoE4-KI mice; settings: 16-month-old female apoE4-KI mice; 20 mg/kg i.p.
Protocol: as §1, with “Brain tissues were collected after a 1-min transcardial perfusion with 0.9% NaCl. One hemibrain from each mouse was fixed in 4% paraformaldehyde, sectioned (30 μm) with a microtome, and immunostained as described below. All experiments were performed in accordance with NIH and institutional guidelines.” left out
(§3) Sliding microtome sections (30 μm) were immunostained with the following primary antibodies: polyclonal goat anti-human apoE (1:8000 for fluorescence; Calbiochem), rabbit anti-neuropeptide Y (1:8000 for […] (DAB); ImmunoStar), rat anti-somatostatin (1:100 for DAB; Chemicon), mouse anti-GAD67 (1:1000 for DAB; Chemicon), mouse anti-MAP2 (1:500 for fluorescence; Sigma), mouse anti-synaptophysin (1:500 for fluorescence; DakoCytomation), and phosphorylation-dependent monoclonal antibody AT8 (p-Ser202; 1:100 for DAB; Endogen). […]

[3] = test system: apoE4(Δ272-299)mE−/−Tau+/+ mice; experiment: Morris water maze, apoE4(Δ272-299)mE−/−Tau+/+ mice; settings: 12-month-old female mice, 20 mg/kg i.p., 21 days before and every day during MWM, vs saline
Protocol: as §1
The water maze pool (diameter, 122 cm) contained opaque water (22-23° C.) with a platform 10 cm in diameter. […] Performance was monitored with an EthoVision video-tracking system (Noldus Information Technology).

[4] = test system: apoE4(Δ272-299)mE−/−Tau−/− mice; experiment: Morris water maze, apoE4(Δ272-299)mE−/−Tau−/− mice
Protocol: as §1
as §2, with “Entry points for the probe trial were in the west quadrant, and the target quadrant was in the southeast quadrant.” left out

[5] = test system: apoE4(Δ272-299)mE−/−Tau−/− mice; experiment: Quantification of GAD67-positive hilar GABAergic interneurons, apoE4(Δ272-299)mE−/−Tau−/− mice; settings: 12-month-old female mice, 1 mg/kg i.p., 3 days before and every day during MWM
Protocol: as §1, with “Brain tissues were collected after a 1-min transcardial perfusion with 0.9% NaCl. One hemibrain from each mouse was fixed in 4% paraformaldehyde, sectioned (30 μm) with a microtome, and immunostained as described below. All experiments were performed in accordance with NIH and institutional guidelines.” left out
as §3

wildtype mice = experiment: Morris water maze, wildtype mice; settings: 12-month-old female wildtype mice, 1 mg/kg i.p., 3 days before and every day during MWM
Protocol: as §2

mE−/−Tau+/+ mice = experiment: Morris water maze, mE−/−Tau+/+ mice; settings: 12-month-old female mE−/−Tau+/+ mice, 1 mg/kg i.p., 3 days before and every day during MWM
Protocol: as §2

Row | Compound | memory deficits in probe trial (target quadrant and target cross tests) (female apoE4-KI mice [1]; 16-month-old apoE4-KI mice, probe trial 96 h after last hidden session, 20 mg/kg i.p.) | learning and memory deficits (female apoE4-KI mice [1]; 16-month-old female apoE4-KI mice, 20 mg/kg i.p. daily, 21 days before and during MWM) | learning curve (escape latency, hidden platform days) (female apoE4-KI mice [1]; 16-month-old female apoE4-KI mice, 20 mg/kg i.p., 21 days before and daily during MWM, vs saline) | learning deficit / learning curve (hidden platform) (female apoE4-KI mice [1]; 21-month-old female apoE4-KI mice, 20 mg/kg, 21 days before and daily during MWM, vs saline, 20 mg/kg) | number of hilar GABAergic interneurons (female apoE4-KI mice [2]) | learning deficit (hidden platform sessions) [3] | learning curve (hidden platform) ([4]; 1 mg/kg i.p., 3 days before and daily during MWM, vs saline-treated controls) | target crossing test in probe trial ([4]; probe trial 24 h after last hidden session, 1 mg/kg i.p.) | rescue (prevention) of learning and memory deficits by tau removal ([4]; subthreshold dose 1 mg/kg i.p., 3 days before and daily during MWM) | number of hilar GABAergic interneurons (GAD67-positive) [5] | learning and memory performance (wildtype mice) | learning and memory performance (wildtype mice; listed as Picrotoxin) | learning and memory performance (mE−/−Tau+/+ mice) | learning and memory performance (mE−/−Tau+/+ mice; listed as Picrotoxin)
1 | CCCC(C)C1(CC)C(=O)NC(=O)NC1=O (centres unmarked) [pentobarbital] | rescued memory deficits | rescued the learning and memory deficits | differed from that of saline-treated apoE4-KI mice (p<0.05, repeated-measures ANOVA) but resembled that of untreated apoE3-KI mice | rescued; also recorded: differed from that of saline-treated apoE4-KI mice (p<0.05, repeated-measures ANOVA) but resembled that of saline-treated apoE3-KI mice | did not alter | rescued the learning and memory deficits; also recorded: rescued the learning deficit; also recorded: learned better than saline-treated apoE4(Δ272-299)mE−/−Tau+/+ mice (p<0.01) |  |  |  |  |  |  |  | 
2 | picrotoxin |  |  |  |  |  |  | resembled that of saline-treated apoE4(Δ272-299)mE−/−Tau+/+ mice | performed significantly worse | abolished | unaltered; also recorded: does not alter | does not alter the learning and memory performance | did not alter | does not alter the learning and memory performance | did not alter
